Source: ChEMBL document CHEMBL6153083, “Synthesis, Structural Modification, and Antismall Cell Lung Cancer Activity of 3-Arylisoquinolines with Dual Inhibitory Activity on Topoisomerase I and II” (J Med Chem, 2025)

Experiments:
NCI-H1048 [1] = assay: Inhibition of cell invasion in human NCI-H1048 cells incubated for 24 hrs by transwell assay; format: functional, cell-based
[2] = Antiproliferative activity against human NCI-H196 cells incubated for 72 hrs; format: functional, cell-based; details: NCI-H196, 72 h
[3] = Toxicity in BALB/c nude mouse xenografted with human NCI-H446 cells assessed as body weight change at 20 mg/kg, ip for 21 days; format: organism-based; details: in vivo, 504 h, time 21 day
NCI-H209 = assay: Antiproliferative activity against human NCI-H209 cells incubated for 72 hrs; format: functional, cell-based; details: NCI-H209, 72 h
NCI-H446 [4] = assay: Inhibition of cell invasion in human NCI-H446 cells incubated for 24 hrs by transwell assay; format: functional, cell-based
NCI-H82 = assay: Antiproliferative activity against human NCI-H82 cells incubated for 72 hrs; format: functional, cell-based; details: NCI-H82, 72 h
[5] = Antiproliferative activity against human L02 cells incubated for 72 hrs; format: toxicity, cell-based
NCI-H446 [6] = assay: Antitumor activity against human NCI-H446 cells xenografted in BALB/c nude mouse at 20 mg/kg, ip for 21 days relative to control; format: functional; details: NCI-H446, 504 h, time 21 day, read-out: TGI
NCI-H146 = assay: Antiproliferative activity against human NCI-H146 cells incubated for 72 hrs; format: functional, cell-based; details: NCI-H146, 72 h
SHP77 = assay: Antiproliferative activity against human SHP77 cells incubated for 72 hrs; format: functional, cell-based; details: SHP77, 72 h
NCI-H446 [7] = assay: Induction of early apoptosis in human NCI-H446 cells incubated for 48 hrs by Annexin V-FITC/PI staining based flow cytometry; format: functional, cell-based; details: dose 1-8 µM
[8] = Antiproliferative activity against human BEAS-2B cells incubated for 72 hrs; format: toxicity, cell-based
NCI-H1048 [9] = assay: Induction of early apoptosis in human NCI-H1048 cells incubated for 48 hrs by Annexin V-FITC/PI staining based flow cytometry; format: functional, cell-based; details: dose 1-8 µM
NCI-H446 [10] = assay: Antiproliferative activity against human NCI-H446 cells incubated for 72 hrs; format: functional, cell-based; details: NCI-H446, 72 h
NCI-H1048 [11] = assay: Antiproliferative activity against human NCI-H1048 cells incubated for 72 hrs; format: functional, cell-based; details: NCI-H1048, 72 h

| IC50 (NCI-H209) | IC50 (NCI-H82) | IC50 (NCI-H146) | IC50 (NCI-H446 [10]) | IC50 (NCI-H1048 [11]) | Structure (SMILES) | inhibition (NCI-H1048 [1]) | IC50 [2] | Activity [3] | inhibition (NCI-H446 [4]) | IC50 at 72 h [5] | inhibition in vivo at 20 mg/kg (NCI-H446 [6]) | IC50 (SHP77) | Activity (NCI-H446 [7]) | IC50 at 72 h [8] | Activity (NCI-H1048 [9]) |
| --- | --- | --- | --- | --- | --- | --- | --- | --- | --- | --- | --- | --- | --- | --- | --- |
| 55.6 µM | 27.1 µM | > 100 µM | 20.2 µM | 14.1 µM | c1c(CN2CCCCC2)c(-c2cc3ccc4c(c3cn2)OCO4)cc2c1OCO2 | – | 33.7 µM | – | – | 25.2 µM | – | 30.2 µM | – | 21.2 µM | – |
| 77 µM | 63.4 µM | > 100 µM | 74.1 µM | 38.6 µM | NC(=O)C1CCN(Cc2cc3c(cc2-c2cc4ccc5c(c4cn2)OCO5)OCO3)CC1 | – | 57.7 µM | – | – | 25.1 µM | – | 41.5 µM | – | 28.8 µM | – |
| 53.1 µM | 55.6 µM | 37.1 µM | 39.3 µM | 44.1 µM | COCC1CCN(Cc2cc3c(cc2-c2cc4ccc5c(c4cn2)OCO5)OCO3)CC1 | – | 45.7 µM | – | – | 48.4 µM | – | 38.5 µM | – | 28.2 µM | – |
| 64.1 µM | > 100 µM | 37 µM | 14.5 µM | > 100 µM | CCCC1CCN(Cc2cc3c(cc2-c2cc4ccc5c(c4cn2)OCO5)OCO3)CC1 | – | 10.2 µM | – | – | 84.2 µM | – | 28.2 µM | – | > 100 µM | – |
| 56.6 µM | 61.5 µM | 17.1 µM | 68.4 µM | 34.6 µM | OCC1CCN(Cc2cc3c(cc2-c2cc4ccc5c(c4cn2)OCO5)OCO3)C1 (stereo not drawn) | – | 36 µM | – | – | 43.2 µM | – | 32.9 µM | – | 26.2 µM | – |
| > 100 µM | 48.8 µM | 42.6 µM | 21.2 µM | > 100 µM | CCC(=O)C1CCN(Cc2cc3c(cc2-c2cc4ccc5c(c4cn2)OCO5)OCO3)CC1 | – | 34.5 µM | – | – | 41.7 µM | – | 26.5 µM | – | > 100 µM | – |
| 64.9 µM | 67.4 µM | > 100 µM | 28.7 µM | 56.1 µM | CC(C)(O)C1CCN(Cc2cc3c(cc2-c2cc4ccc5c(c4cn2)OCO5)OCO3)CC1 | – | 53 µM | – | – | 38.2 µM | – | 40.4 µM | – | 30.1 µM | – |
| 55.8 µM | 25.7 µM | 44.1 µM | 42.7 µM | 12.3 µM | CC1CCN(Cc2cc3c(cc2-c2cc4ccc5c(c4cn2)OCO5)OCO3)CC1 | – | 26.3 µM | – | – | 34.9 µM | – | 31.1 µM | – | 23.7 µM | – |
| > 100 µM | > 100 µM | 37.8 µM | 15.5 µM | > 100 µM | c1c(CN2CCC(C3CC3)CC2)c(-c2cc3ccc4c(c3cn2)OCO4)cc2c1OCO2 | – | > 100 µM | – | – | 83.6 µM | – | > 100 µM | – | > 100 µM | – |
| 68.5 µM | 41.1 µM | 21.1 µM | 19.5 µM | 24.4 µM | OCCCC1CCN(Cc2cc3c(cc2-c2cc4ccc5c(c4cn2)OCO5)OCO3)CC1 | – | 28.2 µM | – | – | 52.2 µM | – | 26.3 µM | – | 24.8 µM | – |
| 47.5 µM | 30 µM | 30.9 µM | 45.9 µM | 21 µM | OC1CCCN(Cc2cc3c(cc2-c2cc4ccc5c(c4cn2)OCO5)OCO3)CC1 (stereo not drawn) | – | 38.7 µM | – | – | 37.4 µM | – | 28.4 µM | – | 21.1 µM | – |

The next lines start with the compound.

| Structure (SMILES) | IC50 (NCI-H209) | IC50 (NCI-H82) | IC50 (NCI-H146) | IC50 (NCI-H446 [10]) | IC50 (NCI-H1048 [11]) | inhibition (NCI-H1048 [1]) | IC50 [2] | Activity [3] | inhibition (NCI-H446 [4]) | IC50 at 72 h [5] | inhibition in vivo at 20 mg/kg (NCI-H446 [6]) | IC50 (SHP77) | Activity (NCI-H446 [7]) | IC50 at 72 h [8] | Activity (NCI-H1048 [9]) |
| --- | --- | --- | --- | --- | --- | --- | --- | --- | --- | --- | --- | --- | --- | --- | --- |
| COc1cc([C@@H]2c3cc4c(cc3[C@@H](O[C@@H]3O[C@@H]5CO[C@@H](C)O[C@H]5[C@H](O)[C@H]3O)[C@H]3COC(=O)[C@H]23)OCO4)cc(OC)c1O [ETOPOSIDE] | > 100 µM | 8.39 µM | 10.6 µM | 2.1 µM | 1.52 µM | Dose-dependent-effect | 24.1 µM | Toxic | Dose-dependent-effect | 15.9 µM | 68.7% | 26.3 µM | Not active; Exhibited Minimal Impact | 6.19 µM | Not active; Exhibited Minimal Impact |
| c1c(CN2CCCCCCCC2)c(-c2cc3ccc4c(c3cn2)OCO4)cc2c1OCO2 | 30.7 µM | 15 µM | 14 µM | 12.5 µM | 7.22 µM | – | 13.9 µM | – | – | 24.8 µM | – | 16.3 µM | – | 17 µM | – |
| FC(F)(F)C1CCN(Cc2cc3c(cc2-c2cc4ccc5c(c4cn2)OCO5)OCO3)CC1 | > 100 µM | > 100 µM | 39.8 µM | 15.5 µM | > 100 µM | – | 34.5 µM | – | – | 56.3 µM | – | 25.4 µM | – | > 100 µM | – |
| O=C1CCC2CCN(Cc3cc4c(cc3-c3cc5ccc6c(c5cn3)OCO6)OCO4)CN12 (stereo not drawn) | > 100 µM | 73.2 µM | 63 µM | 49.6 µM | > 100 µM | – | 78.2 µM | – | – | 84.6 µM | – | 36 µM | – | > 100 µM | – |
| CC[C@@]1(O)C(=O)OCc2c1cc1n(c2=O)Cc2cc3c(CN(C)C)c(O)ccc3nc2-1 [TOPOTECAN] | > 100 µM | 0.41 µM | < 1.56 µM | 22 µM | > 100 µM | – | 16.3 µM | – | – | 0.26 µM | – | 0.19 µM | – | < 0.07 µM | – |
| CC1(C)CCN(Cc2cc3c(cc2-c2cc4ccc5c(c4cn2)OCO5)OCO3)C1 | 30.7 µM | 15 µM | 14 µM | 12.5 µM | 7.22 µM | – | 13.9 µM | – | – | 24.8 µM | – | 16.3 µM | – | 17 µM | – |
| c1c(CN2CCCCCCC2)c(-c2cc3ccc4c(c3cn2)OCO4)cc2c1OCO2 | 26.8 µM | 10.2 µM | 15.1 µM | 1.48 µM | 5.17 µM | – | 10.9 µM | – | – | 23 µM | – | 5.09 µM | – | 24.3 µM | – |
